Laboratory results reported in the supplement of paper PMC10307832.

What was measured:
Assay in all cases: relative viability (nuclei count vs DMSO), 5 days (fraction); higher = more cells survive
Everolimus = compound: CO[C@H]1C[C@@H]2CC[C@@H](C)[C@@](O)(O2)C(=O)C(=O)N2CCCC[C@H]2C(=O)O[C@H]([C@H](C)C[C@@H]2CC[C@@H](OCCO)[C@H](OC)C2)CC(=O)[C@H](C)/C=C(\C)[C@@H](O)[C@@H](OC)C(=O)[C@H](C)C[C@H](C)/C=C/C=C/C=C/1C [Everolimus]
Method in brief: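 Lung cancer cell lines received five library-drug doses (not always all listed) spaced by √10, pinned on vehicle-anchored 1536-well plates after an overnight stay at 37 °C. Five days later, with no medium change, nuclei were Hoechst-stained, imaged at 4× and counted with MetaXpress. Viability is treated-well nuclei relative to vehicle-well nuclei, as a median across plates. Passing plates had control CV below 25% and at least one doubling.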

Everolimus + AZD7762 = compound: CO[C@H]1C[C@@H]2CC[C@@H](C)[C@@](O)(O2)C(=O)C(=O)N2CCCC[C@H]2C(=O)O[C@H]([C@H](C)C[C@@H]2CC[C@@H](OCCO)[C@H](OC)C2)CC(=O)[C@H](C)/C=C(\C)[C@@H](O)[C@@H](OC)C(=O)[C@H](C)C[C@H](C)/C=C/C=C/C=C/1C [Everolimus] + NC(=O)Nc1cc(-c2cccc(F)c2)sc1C(=O)N[C@H]1CCCNC1 [AZD7762] (partner 0.2 µM)
Method in brief: (§1)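 Lung cancer cell lines were pin-tool dosed in 1536-well plates on the day after seeding, with either a lone drug or a fixed anchor-drug dose plus five library-drug doses (not always all listed) in √10 steps. Nuclei were counted on 4× images after 5 days. Relative viability is the ratio of treated-well to vehicle-well nuclei counts, with each value a median of duplicate plates.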

Everolimus + Trametinib = compound: CO[C@H]1C[C@@H]2CC[C@@H](C)[C@@](O)(O2)C(=O)C(=O)N2CCCC[C@H]2C(=O)O[C@H]([C@H](C)C[C@@H]2CC[C@@H](OCCO)[C@H](OC)C2)CC(=O)[C@H](C)/C=C(\C)[C@@H](O)[C@@H](OC)C(=O)[C@H](C)C[C@H](C)/C=C/C=C/C=C/1C [Everolimus] + CC(=O)Nc1cccc(-n2c(=O)n(C3CC3)c(=O)c3c(Nc4ccc(I)cc4F)n(C)c(=O)c(C)c32)c1 [Trametinib] (partner 0.02 µM)
Method in brief: as §1

Everolimus + Tozasertib = compound: CO[C@H]1C[C@@H]2CC[C@@H](C)[C@@](O)(O2)C(=O)C(=O)N2CCCC[C@H]2C(=O)O[C@H]([C@H](C)C[C@@H]2CC[C@@H](OCCO)[C@H](OC)C2)CC(=O)[C@H](C)/C=C(\C)[C@@H](O)[C@@H](OC)C(=O)[C@H](C)C[C@H](C)/C=C/C=C/C=C/1C [Everolimus] + Cc1cc(Nc2cc(N3CCN(C)CC3)nc(Sc3ccc(NC(=O)C4CC4)cc3)n2)n[nH]1 [Tozasertib] (partner 0.1 µM)
Method in brief: as §1

| Cell Line | relative viability (Everolimus; 0.01 µM) | relative viability (Everolimus; 0.03162 µM) | relative viability (Everolimus; 0.1 µM) | relative viability (Everolimus; 0.3162 µM) | relative viability (Everolimus; 1 µM) | relative viability (Everolimus + AZD7762; first compound 0.01 µM) | relative viability (Everolimus + AZD7762; first compound 0.03162 µM) | relative viability (Everolimus + AZD7762; first compound 0.1 µM) | relative viability (Everolimus + AZD7762; first compound 0.3162 µM) | relative viability (Everolimus + AZD7762; first compound 1 µM) | relative viability (Everolimus + Trametinib; first compound 0.01 µM) | relative viability (Everolimus + Trametinib; first compound 0.03162 µM) | relative viability (Everolimus + Trametinib; first compound 0.1 µM) | relative viability (Everolimus + Trametinib; first compound 0.3162 µM) | relative viability (Everolimus + Trametinib; first compound 1 µM) | relative viability (Everolimus + Tozasertib; first compound 0.01 µM) | relative viability (Everolimus + Tozasertib; first compound 0.03162 µM) | relative viability (Everolimus + Tozasertib; first compound 0.1 µM) | relative viability (Everolimus + Tozasertib; first compound 0.3162 µM) | relative viability (Everolimus + Tozasertib; first compound 1 µM) |
| --- | --- | --- | --- | --- | --- | --- | --- | --- | --- | --- | --- | --- | --- | --- | --- | --- | --- | --- | --- | --- |
| NCI-H522 | 0.722 | 0.655 | 0.601 | 0.731 | 0.813 | 0.622 | 0.64 | 0.579 | 0.651 | 0.686 | 0.634 | 0.55 | 0.527 | 0.456 | 0.635 | 0.584 | 0.432 | 0.409 | 0.505 | 0.458 |
| NCI-H1915 | 0.955 | 0.863 | 0.82 | 0.875 | 0.866 | 0.632 | 0.567 | 0.561 | 0.587 | 0.554 | 0.233 | 0.197 | 0.204 | 0.228 | 0.191 | 0.514 | 0.46 | 0.42 | 0.432 | 0.418 |
| NCI-H596 | 0.699 | 0.628 | 0.54 | 0.697 | 0.588 | 0.945 | 0.726 | 0.609 | 0.665 | 0.674 | 0.613 | 0.507 | 0.497 | 0.525 | 0.575 | 0.528 | 0.548 | 0.485 | 0.455 | 0.478 |
| NCI-H2126 | 0.681 | 0.615 | 0.617 | 0.606 | 0.594 | 0.688 | 0.598 | 0.629 | 0.688 | 0.703 | 0.39 | 0.362 | 0.371 | 0.343 | 0.383 | 0.64 | 0.609 | 0.52 | 0.637 | 0.568 |
| LXF-289 | 1.09 | 1.07 | 1 | 1.03 | 1.05 | 1.18 | 1.28 | 1.17 | 1.12 | 1.24 | 0.625 | 0.537 | 0.574 | 0.508 | 0.528 | 0.217 | 0.217 | 0.162 | 0.205 | 0.193 |
| HCC-44 | 1 | 0.974 | 0.985 | 0.969 | 0.957 | 1.1 | 1.18 | 1.03 | 1.12 | 1.25 | 1.13 | 1.08 | 0.982 | 1.04 | 0.901 | 1.07 | 1.07 | 0.94 | 0.97 | 1.19 |
| NCI-H1648 | 0.646 | 0.778 | 0.718 | 0.596 | 0.654 | 0.622 | 0.634 | 0.631 | 0.735 | 1.02 | 0.388 | 0.435 | 0.395 | 0.307 | 0.325 | 0.41 | 0.776 | 0.585 | 0.549 | 0.388 |
| PC-14 | 0.808 | 0.759 | 0.679 | 0.657 | 0.734 | 0.201 | 0.204 | 0.171 | 0.145 | 0.163 | 0.297 | 0.444 | 0.23 | 0.36 | 0.276 | 0.592 | 0.673 | 0.499 | 0.417 | 0.424 |
| HOP-62 | 0.901 | 0.856 | 0.767 | 0.777 | 0.794 | 0.289 | 0.346 | 0.412 | 0.402 | 0.37 | 0.263 | 0.211 | 0.248 | 0.2 | 0.195 | 0.441 | 0.362 | 0.363 | 0.41 | 0.264 |
| NCI-H358 | 0.483 | 0.487 | 0.514 | 0.479 | 0.525 | 0.358 | 0.361 | 0.396 | 0.18 | 0.325 | 0.105 | 0.102 | 0.114 | 0.129 | 0.109 | 0.0999 | 0.106 | 0.0871 | 0.101 | 0.0971 |
| NCI-H1666 | 0.952 | 0.858 | 0.853 | 0.886 | 0.898 | 0.855 | 0.84 | 0.821 | 0.899 | 0.908 | 0.832 | 0.911 | 0.867 | 0.851 | 0.705 | 0.571 | 0.625 | 0.559 | 0.668 | 0.527 |
| NCI-H1355 | 0.666 | 0.537 | 0.552 | 0.628 | 0.48 | 0.552 | 0.468 | 0.456 | 0.471 | 0.376 | 0.244 | 0.24 | 0.215 | 0.263 | 0.244 | 0.497 | 0.398 | 0.355 | 0.413 | 0.32 |
| HCC-827 | 1.1 | 1.09 | 1.01 | 1.03 | 1.05 | 0.188 | 0.164 | 0.185 | 0.193 | 0.163 | 0.494 | 0.314 | 0.311 | 0.31 | 0.295 | 0.451 | 0.417 | 0.404 | 0.378 | 0.366 |
| HARA | 0.858 | 0.999 | 0.784 | 0.87 | 0.78 | 0.15 | 0.335 | 0.223 | 0.309 | 0.252 | 0.425 | 0.394 | 0.346 | 0.559 | 0.339 | 0.226 | 0.126 | – | 0.116 | 0.293 |
